{"source": "paper PMC2990587", "about": "“Central nervous system penetration and enhancement of temozolomide activity in childhood medulloblastoma models by poly(ADP-ribose) polymerase inhibitor AG-014699” (British Journal of Cancer, 2010)", "key": {"PARP-1 [1]": {"target": "T1, PARP-1 (Homo sapiens, UniProt P09874)", "T1 sequence (P09874 whole entry)": "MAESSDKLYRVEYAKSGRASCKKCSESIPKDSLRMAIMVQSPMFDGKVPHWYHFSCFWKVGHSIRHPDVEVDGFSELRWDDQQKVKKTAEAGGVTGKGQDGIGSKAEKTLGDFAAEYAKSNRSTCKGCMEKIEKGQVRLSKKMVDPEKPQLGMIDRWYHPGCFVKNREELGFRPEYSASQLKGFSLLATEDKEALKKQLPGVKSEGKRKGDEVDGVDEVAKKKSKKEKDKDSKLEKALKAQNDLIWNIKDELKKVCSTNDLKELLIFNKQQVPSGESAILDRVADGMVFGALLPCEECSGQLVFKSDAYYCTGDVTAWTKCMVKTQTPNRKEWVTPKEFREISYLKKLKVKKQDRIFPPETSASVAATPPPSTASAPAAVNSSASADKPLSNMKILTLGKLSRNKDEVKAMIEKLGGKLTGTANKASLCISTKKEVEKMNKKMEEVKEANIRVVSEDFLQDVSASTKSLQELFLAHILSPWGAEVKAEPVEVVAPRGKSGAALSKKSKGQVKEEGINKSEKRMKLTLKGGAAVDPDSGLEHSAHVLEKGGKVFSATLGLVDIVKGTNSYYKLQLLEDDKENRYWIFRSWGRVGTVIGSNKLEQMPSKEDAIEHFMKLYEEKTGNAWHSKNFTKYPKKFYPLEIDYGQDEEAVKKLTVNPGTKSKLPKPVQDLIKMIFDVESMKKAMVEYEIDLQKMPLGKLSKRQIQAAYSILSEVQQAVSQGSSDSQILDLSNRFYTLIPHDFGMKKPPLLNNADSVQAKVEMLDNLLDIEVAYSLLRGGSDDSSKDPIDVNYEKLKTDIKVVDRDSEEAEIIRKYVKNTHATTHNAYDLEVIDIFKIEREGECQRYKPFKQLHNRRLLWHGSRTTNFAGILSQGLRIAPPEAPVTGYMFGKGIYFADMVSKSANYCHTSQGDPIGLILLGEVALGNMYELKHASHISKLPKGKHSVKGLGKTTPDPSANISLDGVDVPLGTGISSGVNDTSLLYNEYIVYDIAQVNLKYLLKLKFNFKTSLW", "assay": "PARP activity in permeabilised D283Med cells (10H anti-PAR immunoassay)", "type": "cell-based", "procedure": "Inhibition of PARP activity in 5000 exponentially growing D283Med cells was measured following treatment with a range of AG-014699 concentrations (0–1 μM), in comparison with DMSO-only controls. Maximally stimulated PARP activity was measured in replicate samples (n⩾3) of permeabilised cells by immunological detection of the amount of poly(ADP-ribose) (PAR) formed, using 10H anti-PAR antibody, during a 6-min incubation with NAD^+ and oligonucleotide (substrate and activator) by reference to a PAR (Biomol Research Labs, Plymouth, PA, USA) standard curve using a GCLP-validated assay described previously ([Plummer et al, 2005])."}, "D384Med cells": {"system": "D384Med cells", "assay": "XTT growth inhibition, D384Med", "type": "cell-based, human", "procedure": "Cell growth inhibition was estimated in exponentially growing D425Med, D283Med and D384Med cells in 96-well plates. Seeding densities of 1 × 10^3, 3 × 10^3 and 3 × 10^3 cells, respectively, ensured exponential growth for the duration of the experiment. At 24 h (D384Med) or 48 h (D283Med and D425Med) after seeding, cells were exposed to varying concentrations of temozolomide, as described in the Results, in the presence or absence of 0.4 μM AG-014699, a concentration previously shown to enhance temozolomide cytotoxicity in adult tumour cell lines ([Thomas et al, 2007]). After 3 days (D425Med and D384Med) or 5 days (D283Med) of culture (equivalent to approximately three cell divisions), the cell viability was quantified using an XTT cell proliferation kit assay (Roche, Mannheim, Germany), according to the manufacturer's instructions. Cell growth was expressed as a percentage in relation to DMSO or 0.4 μM AG-014699-alone controls. The concentration of temozolomide, alone or in combination with AG-014699, that inhibited growth by 50% (GI50) was calculated from computer-generated curves (GraphPad Software, San Diego, CA, USA). The potentiation factor50 (PF50) is defined as the ratio of […]. All data were from at least three independent experiments."}, "PARP-1 [2]": {"target": "T2, PARP-1 (Mus musculus, UniProt P11103)", "T2 construct": "from tissue; host or cells: brain of CD-1 nude mice", "T2 sequence (P11103 whole entry)": "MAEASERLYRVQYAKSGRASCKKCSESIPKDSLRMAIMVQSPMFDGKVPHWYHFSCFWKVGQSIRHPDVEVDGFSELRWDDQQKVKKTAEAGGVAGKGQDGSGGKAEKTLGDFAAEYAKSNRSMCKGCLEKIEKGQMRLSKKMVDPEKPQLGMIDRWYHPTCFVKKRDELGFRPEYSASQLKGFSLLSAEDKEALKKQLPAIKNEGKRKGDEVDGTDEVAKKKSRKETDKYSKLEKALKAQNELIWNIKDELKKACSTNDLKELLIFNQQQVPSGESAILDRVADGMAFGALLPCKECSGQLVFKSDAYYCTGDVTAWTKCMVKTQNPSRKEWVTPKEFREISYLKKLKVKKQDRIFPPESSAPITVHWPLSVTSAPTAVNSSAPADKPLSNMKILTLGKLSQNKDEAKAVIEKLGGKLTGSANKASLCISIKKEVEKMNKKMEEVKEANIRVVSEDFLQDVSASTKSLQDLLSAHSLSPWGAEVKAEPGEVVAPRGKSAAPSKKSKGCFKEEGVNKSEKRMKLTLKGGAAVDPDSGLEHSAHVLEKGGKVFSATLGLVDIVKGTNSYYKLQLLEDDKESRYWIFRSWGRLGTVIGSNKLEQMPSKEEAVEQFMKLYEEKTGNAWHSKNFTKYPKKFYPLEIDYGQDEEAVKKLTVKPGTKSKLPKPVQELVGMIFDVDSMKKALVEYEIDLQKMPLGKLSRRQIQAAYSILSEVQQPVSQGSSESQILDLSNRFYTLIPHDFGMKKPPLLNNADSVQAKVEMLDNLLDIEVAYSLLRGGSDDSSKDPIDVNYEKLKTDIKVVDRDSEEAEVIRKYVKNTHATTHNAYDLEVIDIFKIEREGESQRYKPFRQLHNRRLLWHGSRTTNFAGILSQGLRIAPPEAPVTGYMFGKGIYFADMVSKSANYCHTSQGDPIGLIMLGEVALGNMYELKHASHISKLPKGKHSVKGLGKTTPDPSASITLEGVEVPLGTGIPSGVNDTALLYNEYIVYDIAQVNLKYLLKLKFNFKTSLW", "assay": "PARP activity in brain homogenates after AG-014699 dosing", "type": "in vivo", "procedure": "(§1) One or four daily doses of PARP inhibitor AG-014699 (1 mg kg^−1 intraperitoneally (i.p.)) were given to CD-1 nude mice bearing established D283Med xenografts. At 0.5, 2, 6 and 24 h after the initial or fourth daily dose of AG-014699, three animals per time point were bled by cardiac puncture under general anaesthesia, and then killed. Plasma was separated from the blood samples using standard methods and stored at −80°C. The brains and tumours were removed, snap frozen in liquid nitrogen and stored at −80°C before analysis. Blood, tumour and brain tissue were removed from three untreated control animals and processed in the same way.\n(§2) PARP activity was determined in homogenates of subcutaneous D283Med xenografts and brain tissue (see above). Maximally stimulated PARP activity was measured in replicate samples (n⩾3) of a 1 : 1000 dilution of the homogenate as described for permeabilised D283Med cells (see above). Data were calculated as pmol PAR per mg protein by reference to the PAR standard curve and protein content of the sample and expressed as a percentage of the corresponding tissue from the saline-treated control animals. The mean PARP activity in xenograft and brain samples taken at each time point was expressed as a percentage of the mean PARP activity of control xenografts from untreated mice (n=3)."}, "PARP-1 [3]": {"target": "T1, PARP-1", "assay": "PARP activity in D283Med xenograft homogenates after AG-014699 dosing", "type": "in vivo, mouse", "procedure": "as §1, §2"}, "D425Med xenografts": {"system": "D425Med xenografts", "assay": "Tumour growth inhibition in vivo, D425Med xenografts", "set-up": "species or system mouse", "description": "(§3) All of the in vivo experiments were reviewed and approved by the relevant institutional animal welfare committees, and performed according to national law. Female athymic nude mice (CD1 nu/nu; Charles River, Margate, UK) used for anti-tumour studies were maintained and handled in isolators under specific pathogen-free conditions. […], […] and […] (1 × 10^7 exponentially growing cells per mouse, harvested and implanted in growth media) xenografts were established by sub-cutaneous implantation into CD-1 nude mice. […] Treatment was initiated when sufficient number of mice had established tumours to allow randomisation into treatment groups: day 17 for […], day 26 for […] and day 32 for […]. […] For drug combinations, AG-014699 was administered immediately after administering temozolomide. […] Tumour growth delay (TGD) is defined as the time to RTV4 in drug-treated mice compared with the time to RTV4 in control (vehicle alone) mice. Median tumour volume is shown, rather than the mean, as this is generally accepted as the most statistically reliable representation of the average growth rate of tumours in a small group of mice, if a normal distribution of tumour volumes cannot be assumed. Tumour growth delay was calculated as: median time to RTV4 in treated group-median time to RTV4 in control group."}, "D283Med xenografts": {"system": "D283Med xenografts", "assay": "Tumour growth inhibition in vivo, D283Med xenografts", "set-up": "species or system mouse", "description": "as §3"}, "D384Med xenografts": {"system": "D384Med xenografts", "assay": "Tumour growth inhibition in vivo, D384Med xenografts", "set-up": "species or system mouse", "description": "as §3"}}, "data": [{"smiles": "CNCc1ccc(-c2[nH]c3cc(F)cc4c3c2CCNC4=O)cc1", "note": "[AG-014699]", "values": [{"measurement": "Inhibition of PARP-1 activity", "setting": "PARP-1 [1]; 0.1 μM AG-014699", "value": 80, "unit": "%"}, {"measurement": "Inhibition of PARP-1 activity", "setting": "PARP-1 [1]; 0.4 μM AG-014699", "value": "> 95", "unit": "%"}, {"measurement": "inhibition at 0.1 µM", "setting": "PARP-1 [1]; D283 Med, 0.1 μM AG-014699", "value": 81.1, "unit": "%"}, {"measurement": "inhibition at 0.4 µM", "setting": "PARP-1 [1]; D283 Med, 0.4 μM AG-014699", "value": 96.8, "unit": "%"}, {"measurement": "inhibition at 1 µM", "setting": "PARP-1 [1]; D283 Med, 1 μM AG-014699", "value": 97.1, "unit": "%"}, {"measurement": "Sensitisation to temozolomide by AG-014699", "setting": "D384Med cells; D384Med (MGMT+ MMR+), 0.4 μM AG-014699", "value": "> 3", "unit": "fold"}, {"measurement": "Growth inhibition by AG-014699 alone", "setting": "D384Med cells; D384Med, 0.4 μM, data not shown", "value": "not growth inhibitory"}, {"measurement": "PF50", "setting": "D384Med cells; D384Med, potentiation of temozolomide by 0.4 μM AG-014699", "value": "3.8±1"}, {"measurement": "PARP activity in brain", "setting": "PARP-1 [2]; 24 h after fourth daily dose 1 mg kg−1 i.p.", "value": "near-normal activity"}, {"measurement": "Reduction of PARP activity in brain", "setting": "PARP-1 [2]; 24 h after single dose 1 mg kg−1 i.p.", "value": "approximately 40%"}, {"measurement": "Reduction of PARP activity in brain tissue", "setting": "PARP-1 [2]; abstract, time not stated", "value": "≥ 75", "unit": "%"}, {"measurement": "Reduction of PARP activity in brain", "setting": "PARP-1 [2]; first 2 h after single dose 1 mg kg−1 i.p.", "value": "around 75%"}, {"measurement": "Reduction of PARP activity in tumour (nadir)", "setting": "PARP-1 [3]; D283Med xenograft, 6 h post-injection, similar after first and fourth dose, 1 mg kg−1 i.p.", "value": "around 75%"}, {"measurement": "Reduction of PARP activity in xenograft tissue", "setting": "PARP-1 [3]; abstract, time not stated", "value": "≥ 75", "unit": "%"}, {"measurement": "Median nadir body weight (% starting weight)", "setting": "D425Med xenografts; D425Med-bearing mice, daily x5, TMZ 68 mg kg−1 p.o., AG-014699 1 mg kg−1 i.p.", "value": 98, "unit": "% starting weight"}, {"measurement": "Median time to RTV4", "setting": "D425Med xenografts; D425Med, daily x5, TMZ 68 mg kg−1 p.o., AG-014699 1 mg kg−1 i.p.", "value": 15.5, "unit": "days"}, {"measurement": "Complete regressions", "setting": "D425Med xenografts; D425Med, mice with regression/group, sustained for 100 days", "value": "0/5"}, {"measurement": "Median nadir body weight (% starting weight)", "setting": "D283Med xenografts; D283Med-bearing mice, daily x5, TMZ 68 mg kg−1 p.o., AG-014699 1 mg kg−1 i.p.", "value": 100, "unit": "% starting weight"}, {"measurement": "Median time to RTV4", "setting": "D283Med xenografts; D283Med, daily x5, TMZ 68 mg kg−1 p.o., AG-014699 1 mg kg−1 i.p.", "value": 8, "unit": "days"}, {"measurement": "Complete regressions", "setting": "D283Med xenografts; D283Med, mice with regression/group", "value": "0/5"}, {"measurement": "Tumour growth delay", "setting": "D283Med xenografts; D283Med, versus control time to RTV4", "value": 1, "unit": "days"}, {"measurement": "Median nadir body weight (% starting weight)", "setting": "D384Med xenografts; D384Med-bearing mice, daily x5, TMZ 68 mg kg−1 p.o., AG-014699 1 mg kg−1 i.p.", "value": 96, "unit": "% starting weight"}, {"measurement": "Median time to RTV4", "setting": "D384Med xenografts; D384Med, daily x5, TMZ 68 mg kg−1 p.o., AG-014699 1 mg kg−1 i.p.", "value": 20, "unit": "days"}, {"measurement": "Complete regressions", "setting": "D384Med xenografts; D384Med, mice with regression/group, transient", "value": "0/5"}, {"measurement": "Tumour growth delay", "setting": "D384Med xenografts; D384Med, versus control time to RTV4", "value": 4, "unit": "days"}]}]}
